Experimental data published in the supplement of paper PMC10307832.

Experiments:
Experiment in all cases: relative viability (nuclei count vs DMSO), 5 days (fraction); higher = more cells survive
ChaGo-K-1 = system: ChaGo-K-1
Outline: (§1)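 Lung cancer cell lines in 1536-well plates were dosed by pin tool the day after seeding, either with one drug alone or with a fixed anchor-drug dose plus five library-drug doses (not always all listed) in √10 steps. After 5 days, cells were fixed and their nuclei stained in one step (final 0.05% Triton X-100, 1% formaldehyde, 1 ug/ml Hoechst), then counted on 4× images. Relative viability is the nuclei count in treated wells divided by that in vehicle wells. Values are medians of duplicate plates.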

EMC-BAC-2 = system: EMC-BAC-2
Outline: as §1

EPLC-272H = system: EPLC-272H
Outline: as §1

H3255 = system: H3255
Outline: as §1

HCC-44 = system: HCC-44
Outline: as §1

HCC-827 = system: HCC-827
Outline: as §1

LCLC-103H = system: LCLC-103H
Outline: as §1

LCLC-97TM1 = system: LCLC-97TM1
Outline: as §1

NCI-H1355 = system: NCI-H1355
Outline: as §1

NCI-H1395 = system: NCI-H1395
Outline: as §1

NCI-H1651 = system: NCI-H1651
Outline: as §1

NCI-H1793 = system: NCI-H1793
Outline: as §1

**Q.** With Clc1ccc(Nc2nnc(Cc3ccncc3)c3ccccc23)cc1 [Vatalanib] + CC(=O)Nc1cccc(-n2c(=O)n(C3CC3)c(=O)c3c(Nc4ccc(I)cc4F)n(C)c(=O)c(C)c32)c1 [Trametinib] (partner 0.02 µM) as the compound, how does the relative viability (ChaGo-K-1; first compound 0.04 µM) read?
**A.** The relative viability was 0.86.

**Q.** What about the relative viability (ChaGo-K-1; first compound 0.1265 µM) of the same compound?
**A.** Its relative viability is 0.823.

**Q.** What about the relative viability (ChaGo-K-1; first compound 0.4 µM) of the same compound?
**A.** Its relative viability is 0.928.

**Q.** What about the relative viability (ChaGo-K-1; first compound 1.265 µM) of the same compound?
**A.** The relative viability was 0.877.

**Q.** What about the relative viability (ChaGo-K-1; first compound 4 µM) of the same compound?
**A.** Its relative viability is 0.881.

**Q.** What about the relative viability (EMC-BAC-2; first compound 0.04 µM) of the same compound?
**A.** The relative viability was 0.902.

**Q.** What about the relative viability (EMC-BAC-2; first compound 0.1265 µM) of the same compound?
**A.** The relative viability was 0.879.

**Q.** And the relative viability (EMC-BAC-2; first compound 0.4 µM)?
**A.** The relative viability was 0.908.

**Q.** What about the relative viability (EMC-BAC-2; first compound 4 µM) of the same compound?
**A.** Its relative viability is 0.944.

**Q.** And the relative viability (EPLC-272H; first compound 0.04 µM)?
**A.** The relative viability was 0.284.

**Q.** And the relative viability (EPLC-272H; first compound 0.1265 µM)?
**A.** The relative viability was 0.247.

**Q.** And the relative viability (EPLC-272H; first compound 0.4 µM)?
**A.** Its relative viability is 0.327.

**Q.** And the relative viability (EPLC-272H; first compound 1.265 µM)?
**A.** Its relative viability is 0.264.

**Q.** What about the relative viability (EPLC-272H; first compound 4 µM) of the same compound?
**A.** The relative viability was 0.268.

**Q.** And the relative viability (H3255; first compound 0.04 µM)?
**A.** Its relative viability is 0.563.

**Q.** What about the relative viability (H3255; first compound 0.1265 µM) of the same compound?
**A.** Its relative viability is 0.606.

**Q.** What about the relative viability (H3255; first compound 0.4 µM) of the same compound?
**A.** The relative viability was 0.57.

**Q.** And the relative viability (H3255; first compound 1.265 µM)?
**A.** Its relative viability is 0.583.

**Q.** And the relative viability (H3255; first compound 4 µM)?
**A.** The relative viability was 0.58.

**Q.** What about the relative viability (HCC-44; first compound 0.04 µM) of the same compound?
**A.** The relative viability was 1.06.

**Q.** And the relative viability (HCC-44; first compound 0.1265 µM)?
**A.** Its relative viability is 1.07.

**Q.** And the relative viability (HCC-44; first compound 0.4 µM)?
**A.** The relative viability was 0.959.

**Q.** And the relative viability (HCC-44; first compound 1.265 µM)?
**A.** Its relative viability is 0.994.

**Q.** And the relative viability (HCC-44; first compound 4 µM)?
**A.** The relative viability was 1.02.

**Q.** And the relative viability (HCC-827; first compound 0.04 µM)?
**A.** The relative viability was 0.519.

**Q.** And the relative viability (HCC-827; first compound 0.1265 µM)?
**A.** The relative viability was 0.578.

**Q.** And the relative viability (HCC-827; first compound 1.265 µM)?
**A.** The relative viability was 0.52.

**Q.** What about the relative viability (HCC-827; first compound 4 µM) of the same compound?
**A.** Its relative viability is 0.522.

**Q.** And the relative viability (LCLC-103H; first compound 0.04 µM)?
**A.** Its relative viability is 0.663.

**Q.** What about the relative viability (LCLC-103H; first compound 0.1265 µM) of the same compound?
**A.** Its relative viability is 0.663.

**Q.** What about the relative viability (LCLC-103H; first compound 0.4 µM) of the same compound?
**A.** Its relative viability is 0.684.

**Q.** What about the relative viability (LCLC-103H; first compound 1.265 µM) of the same compound?
**A.** The relative viability was 0.653.

**Q.** And the relative viability (LCLC-103H; first compound 4 µM)?
**A.** The relative viability was 0.669.

**Q.** What about the relative viability (LCLC-97TM1; first compound 0.04 µM) of the same compound?
**A.** The relative viability was 0.18.

**Q.** What about the relative viability (LCLC-97TM1; first compound 0.1265 µM) of the same compound?
**A.** Its relative viability is 0.197.

**Q.** What about the relative viability (LCLC-97TM1; first compound 0.4 µM) of the same compound?
**A.** The relative viability was 0.198.

**Q.** And the relative viability (LCLC-97TM1; first compound 1.265 µM)?
**A.** Its relative viability is 0.195.

**Q.** And the relative viability (LCLC-97TM1; first compound 4 µM)?
**A.** Its relative viability is 0.184.

**Q.** What about the relative viability (NCI-H1355; first compound 0.04 µM) of the same compound?
**A.** Its relative viability is 0.443.

**Q.** What about the relative viability (NCI-H1355; first compound 0.1265 µM) of the same compound?
**A.** The relative viability was 0.383.

**Q.** What about the relative viability (NCI-H1355; first compound 0.4 µM) of the same compound?
**A.** Its relative viability is 0.461.

**Q.** What about the relative viability (NCI-H1355; first compound 1.265 µM) of the same compound?
**A.** The relative viability was 0.404.

**Q.** And the relative viability (NCI-H1355; first compound 4 µM)?
**A.** The relative viability was 0.428.

**Q.** What about the relative viability (NCI-H1395; first compound 0.04 µM) of the same compound?
**A.** Its relative viability is 1.1.

**Q.** What about the relative viability (NCI-H1395; first compound 0.1265 µM) of the same compound?
**A.** Its relative viability is 1.03.

**Q.** What about the relative viability (NCI-H1395; first compound 0.4 µM) of the same compound?
**A.** Its relative viability is 1.14.

**Q.** And the relative viability (NCI-H1395; first compound 4 µM)?
**A.** Its relative viability is 0.974.

**Q.** What about the relative viability (NCI-H1651; first compound 0.04 µM) of the same compound?
**A.** The relative viability was 0.802.

**Q.** And the relative viability (NCI-H1651; first compound 0.1265 µM)?
**A.** Its relative viability is 0.778.

**Q.** What about the relative viability (NCI-H1651; first compound 0.4 µM) of the same compound?
**A.** The relative viability was 0.779.

**Q.** What about the relative viability (NCI-H1651; first compound 1.265 µM) of the same compound?
**A.** The relative viability was 0.742.

**Q.** And the relative viability (NCI-H1651; first compound 4 µM)?
**A.** Its relative viability is 0.809.

**Q.** What about the relative viability (NCI-H1793; first compound 0.04 µM) of the same compound?
**A.** Its relative viability is 0.372.

**Q.** What about the relative viability (NCI-H1793; first compound 0.1265 µM) of the same compound?
**A.** The relative viability was 0.494.

**Q.** And the relative viability (NCI-H1793; first compound 0.4 µM)?
**A.** The relative viability was 0.424.
